Like-named read-outs stand apart in the source and are kept apart here.
How the values were obtained:
Format in all cases: biochemical
PI3Kγ = target: T1, PI3Kγ (Homo sapiens, UniProt P48736); experiment: TR-FRET enzymatic activity assay, PI3Kγ; settings: read-out: PI3Kγ IC50
T1 construct: made in house
Experimental: The compounds of formula (I) were characterized for their enzymatic activity against the PI3K isoforms. The activities were measured using a time-resolved fluorescence resonance energy transfer (TR-FRET) assay.

PI3Kδ = target: T2, PI3Kδ (Homo sapiens, UniProt O00329); experiment: TR-FRET enzymatic activity assay, PI3Kδ; settings: Table 2; TR-FRET, 2x Km ATP, 30 minutes at 25° C.
T2 construct: made in house

PI3Kβ = target: T3, PI3Kβ (Homo sapiens, UniProt P42338); experiment: TR-FRET enzymatic activity assay, PI3Kβ; settings: Table 2; TR-FRET, 2x Km ATP, 30 minutes at 25° C.
T3 construct: made in house

[1] = Table 2, TR-FRET, 2x Km ATP, 30 minutes at 25° C.

T2 sequence (O00329 whole entry): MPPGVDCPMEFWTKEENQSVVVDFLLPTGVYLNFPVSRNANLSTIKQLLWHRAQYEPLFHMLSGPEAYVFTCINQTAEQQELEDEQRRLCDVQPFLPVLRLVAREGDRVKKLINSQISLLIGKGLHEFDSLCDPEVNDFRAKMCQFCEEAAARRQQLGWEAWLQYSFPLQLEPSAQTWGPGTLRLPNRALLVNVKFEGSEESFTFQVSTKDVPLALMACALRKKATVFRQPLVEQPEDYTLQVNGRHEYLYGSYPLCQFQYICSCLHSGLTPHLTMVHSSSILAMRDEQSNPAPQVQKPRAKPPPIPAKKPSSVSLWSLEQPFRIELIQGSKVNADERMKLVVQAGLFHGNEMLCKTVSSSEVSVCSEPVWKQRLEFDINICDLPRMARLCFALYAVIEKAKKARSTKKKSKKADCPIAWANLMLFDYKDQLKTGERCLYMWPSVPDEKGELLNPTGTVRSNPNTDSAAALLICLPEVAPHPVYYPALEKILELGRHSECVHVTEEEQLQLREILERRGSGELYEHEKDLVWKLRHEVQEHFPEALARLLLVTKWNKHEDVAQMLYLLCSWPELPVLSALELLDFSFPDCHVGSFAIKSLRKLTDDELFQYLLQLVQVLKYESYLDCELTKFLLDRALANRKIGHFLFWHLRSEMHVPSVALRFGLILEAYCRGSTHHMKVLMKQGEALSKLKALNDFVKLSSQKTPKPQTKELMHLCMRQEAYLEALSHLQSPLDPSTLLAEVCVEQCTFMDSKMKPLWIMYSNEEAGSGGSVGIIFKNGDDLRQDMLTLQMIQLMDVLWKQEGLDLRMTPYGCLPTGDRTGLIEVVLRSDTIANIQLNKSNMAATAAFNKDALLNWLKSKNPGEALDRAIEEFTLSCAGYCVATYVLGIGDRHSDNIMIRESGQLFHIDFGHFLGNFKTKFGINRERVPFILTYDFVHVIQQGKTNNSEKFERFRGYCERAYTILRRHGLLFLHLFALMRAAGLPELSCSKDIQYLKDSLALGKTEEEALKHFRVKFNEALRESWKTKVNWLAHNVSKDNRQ
T2 sequence (P27986 whole entry partner): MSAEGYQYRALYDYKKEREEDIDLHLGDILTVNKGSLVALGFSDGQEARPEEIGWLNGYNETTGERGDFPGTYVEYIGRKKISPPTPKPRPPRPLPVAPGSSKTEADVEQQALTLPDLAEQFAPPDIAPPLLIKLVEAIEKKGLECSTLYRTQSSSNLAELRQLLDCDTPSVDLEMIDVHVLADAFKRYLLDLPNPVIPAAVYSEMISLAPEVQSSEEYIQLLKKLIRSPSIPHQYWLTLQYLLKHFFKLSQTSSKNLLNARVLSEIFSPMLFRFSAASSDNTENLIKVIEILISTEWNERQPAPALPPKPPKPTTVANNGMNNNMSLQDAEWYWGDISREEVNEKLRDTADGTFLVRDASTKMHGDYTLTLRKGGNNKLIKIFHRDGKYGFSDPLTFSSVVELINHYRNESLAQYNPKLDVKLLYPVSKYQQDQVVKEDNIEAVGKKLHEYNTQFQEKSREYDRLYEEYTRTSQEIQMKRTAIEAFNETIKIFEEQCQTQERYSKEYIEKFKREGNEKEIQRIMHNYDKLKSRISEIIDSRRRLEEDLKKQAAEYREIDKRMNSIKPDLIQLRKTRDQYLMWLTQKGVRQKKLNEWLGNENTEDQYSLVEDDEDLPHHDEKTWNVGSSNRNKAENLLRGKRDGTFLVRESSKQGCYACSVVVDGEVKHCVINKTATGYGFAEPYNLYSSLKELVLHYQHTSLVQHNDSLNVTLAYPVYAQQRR
T3 sequence (P42338 whole entry): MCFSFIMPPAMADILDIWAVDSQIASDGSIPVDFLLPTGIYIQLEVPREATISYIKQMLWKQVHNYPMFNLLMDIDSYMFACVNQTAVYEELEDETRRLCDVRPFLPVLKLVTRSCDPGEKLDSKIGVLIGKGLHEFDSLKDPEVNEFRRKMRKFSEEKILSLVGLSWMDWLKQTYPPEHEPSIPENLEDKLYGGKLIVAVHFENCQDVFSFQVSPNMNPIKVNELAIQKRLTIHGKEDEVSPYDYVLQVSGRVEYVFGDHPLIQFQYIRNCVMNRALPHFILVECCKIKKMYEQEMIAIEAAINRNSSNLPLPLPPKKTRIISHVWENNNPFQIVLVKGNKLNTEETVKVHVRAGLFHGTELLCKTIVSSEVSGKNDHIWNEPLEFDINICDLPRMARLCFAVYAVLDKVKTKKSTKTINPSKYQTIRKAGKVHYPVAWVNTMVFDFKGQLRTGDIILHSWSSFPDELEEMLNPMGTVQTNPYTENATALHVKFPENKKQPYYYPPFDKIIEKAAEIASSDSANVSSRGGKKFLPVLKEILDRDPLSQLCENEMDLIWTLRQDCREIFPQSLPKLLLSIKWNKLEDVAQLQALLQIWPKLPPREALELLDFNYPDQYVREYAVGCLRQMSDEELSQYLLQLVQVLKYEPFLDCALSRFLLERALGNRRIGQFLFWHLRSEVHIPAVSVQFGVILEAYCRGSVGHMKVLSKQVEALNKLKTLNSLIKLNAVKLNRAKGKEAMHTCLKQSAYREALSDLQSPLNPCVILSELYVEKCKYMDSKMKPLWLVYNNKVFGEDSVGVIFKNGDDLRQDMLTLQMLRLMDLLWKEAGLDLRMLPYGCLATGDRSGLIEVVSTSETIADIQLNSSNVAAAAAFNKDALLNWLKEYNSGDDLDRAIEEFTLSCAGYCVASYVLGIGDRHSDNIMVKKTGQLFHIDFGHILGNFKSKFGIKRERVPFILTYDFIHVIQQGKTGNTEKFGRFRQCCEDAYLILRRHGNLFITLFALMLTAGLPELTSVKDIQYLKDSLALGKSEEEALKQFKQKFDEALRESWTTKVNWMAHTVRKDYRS
T3 sequence (P27986 whole entry partner): as the sequence (P27986 whole entry partner) above
T1 sequence (P48736 whole entry): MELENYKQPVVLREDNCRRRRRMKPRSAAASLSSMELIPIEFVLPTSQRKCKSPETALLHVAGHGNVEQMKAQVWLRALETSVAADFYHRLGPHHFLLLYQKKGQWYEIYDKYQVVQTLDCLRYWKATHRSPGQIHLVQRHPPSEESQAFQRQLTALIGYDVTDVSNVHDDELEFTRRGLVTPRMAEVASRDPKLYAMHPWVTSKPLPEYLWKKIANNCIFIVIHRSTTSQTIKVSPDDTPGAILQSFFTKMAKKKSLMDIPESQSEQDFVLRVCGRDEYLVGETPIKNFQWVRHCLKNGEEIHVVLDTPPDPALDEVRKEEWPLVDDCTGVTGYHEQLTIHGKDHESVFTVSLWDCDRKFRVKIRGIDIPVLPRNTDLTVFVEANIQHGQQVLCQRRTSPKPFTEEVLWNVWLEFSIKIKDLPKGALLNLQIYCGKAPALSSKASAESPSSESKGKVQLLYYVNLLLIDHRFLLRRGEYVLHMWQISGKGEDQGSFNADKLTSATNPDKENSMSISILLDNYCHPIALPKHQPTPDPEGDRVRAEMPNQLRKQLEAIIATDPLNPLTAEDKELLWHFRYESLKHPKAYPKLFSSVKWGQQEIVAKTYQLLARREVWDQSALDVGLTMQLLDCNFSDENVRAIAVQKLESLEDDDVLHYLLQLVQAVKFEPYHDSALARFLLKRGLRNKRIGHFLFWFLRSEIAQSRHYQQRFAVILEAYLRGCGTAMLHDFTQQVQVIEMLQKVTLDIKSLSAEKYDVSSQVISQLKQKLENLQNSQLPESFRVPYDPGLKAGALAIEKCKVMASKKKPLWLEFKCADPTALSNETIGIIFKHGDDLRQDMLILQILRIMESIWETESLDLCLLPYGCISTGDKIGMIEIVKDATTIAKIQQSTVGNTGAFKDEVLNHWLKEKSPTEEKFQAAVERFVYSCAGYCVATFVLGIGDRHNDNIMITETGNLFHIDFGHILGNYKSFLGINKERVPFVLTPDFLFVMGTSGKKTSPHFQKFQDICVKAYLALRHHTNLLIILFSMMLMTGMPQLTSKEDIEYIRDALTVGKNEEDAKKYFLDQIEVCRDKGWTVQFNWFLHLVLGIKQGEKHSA

Compound | IC50 (PI3Kγ; [1]) [nM] | IC50 (PI3Kδ) [nM] | IC50 (PI3Kβ) [nM] | IC50 (PI3Kγ) [nM]
Cc1nc(N)nc(N[C@H](c2nc3cccc(Cl)c3c(=O)n2-c2cn[nH]c2)C2CC2)c1C#N [Compound 27, (S)-2-amino-4-(((5-chloro-4-oxo-3-(1H-pyrazol-4-yl)-3,4-dihydroquinazolin-2-yl)(cyclopropyl)methyl)amino)-6-methylpyrimidine-5-carbonitrile] | 71 | 0.7 | 2 | –
N#Cc1c(N)nc(N)nc1N[C@H](c1nc2c(Cl)cccc2c(=O)n1-c1cn[nH]c1)C1CC1 [Compound 29, (S)-2,4-diamino-6-(((8-chloro-4-oxo-3-(1H-pyrazol-4-yl)-3,4-dihydroquinazolin-2-yl)(cyclopropyl)methyl)amino)pyrimidine-5-carbonitrile] | 440 | 6 | 3 | –
N#Cc1c(N)nc(N)nc1N[C@H](c1nc2c(Cl)cccc2c(=O)n1-c1cc[nH]n1)C1CC1 [Compound 30, (S)-2,4-diamino-6-(((8-chloro-4-oxo-3-(1H-pyrazol-3-yl)-3,4-dihydroquinazolin-2-yl)(cyclopropyl)methyl)amino)pyrimidine-5-carbonitrile] | 1300 | 3 | 2 | –
N#Cc1c(N)nc(N)nc1N[C@H](c1nc2c(Cl)ccc(Cl)c2c(=O)n1-c1cn[nH]c1)C1CC1 [Compound 31, (S)-2,4-diamino-6-((cyclopropyl(5,8-dichloro-4-oxo-3-(1H-pyrazol-4-yl)-3,4-dihydroquinazolin-2-yl)methyl)amino)pyrimidine-5-carbonitrile] | 160 | 1 | 1 | –
N#Cc1c(N)nc(N)nc1N[C@H](c1nc2c(Cl)ccc(Cl)c2c(=O)n1-c1cc[nH]n1)C1CC1 [Compound 32, (S)-2,4-diamino-6-((cyclopropyl(5,8-dichloro-4-oxo-3-(1H-pyrazol-3-yl)-3,4-dihydroquinazolin-2-yl)methyl)amino)pyrimidine-5-carbonitrile] | 600 | 1 | 1 | –
CC[C@H](Nc1nc(N)nc(N)c1C#N)c1nc2c(C)cccc2c(=O)n1-c1cn[nH]c1 [Compound 33, (S)-2,4-diamino-6-((1-(8-methyl-4-oxo-3-(1H-pyrazol-4-yl)-3,4-dihydroquinazolin-2-yl)propyl)amino)pyrimidine-5-carbonitrile] | 2000 | 22 | 84 | –
CC[C@H](Nc1nc(N)nc(N)c1C#N)c1nc2c(C)cccc2c(=O)n1-c1cc[nH]n1 [Compound 34, (S)-2,4-diamino-6-((1-(8-methyl-4-oxo-3-(1H-pyrazol-3-yl)-3,4-dihydroquinazolin-2-yl)propyl)amino)pyrimidine-5-carbonitrile] | 6100 | 8 | 7 | –
CC[C@H](Nc1nc(N)nc(N)c1C#N)c1nc2c(C)ccc(F)c2c(=O)n1-c1cn[nH]c1 [Compound 35, (S)-2,4-diamino-6-((1-(5-fluoro-8-methyl-4-oxo-3-(1H-pyrazol-4-yl)-3,4-dihydroquinazolin-2-yl)propyl)amino)pyrimidine-5-carbonitrile] | 1400 | 10 | 21 | –
CC[C@H](Nc1nc(N)nc(N)c1C#N)c1nc2c(C)ccc(F)c2c(=O)n1-c1cc[nH]n1 [Compound 36, (S)-2,4-diamino-6-((1-(5-fluoro-8-methyl-4-oxo-3-(1H-pyrazol-3-yl)-3,4-dihydroquinazolin-2-yl)propyl)amino)pyrimidine-5-carbonitrile] | 4100 | 5 | 2 | –
O=c1c2c(Cl)ccc(Cl)c2nc([C@@H](Nc2ncnc3scnc23)C2CC2)n1-c1cc[nH]n1 [Compound 37, (S)-5,8-dichloro-2-(cyclopropyl(thiazolo[5,4-d]pyrimidin-7-ylamino)methyl)-3-(1H-pyrazol-3-yl)quinazolin-4(3H)-one] | 5100 | 0.6 | 1 | –
O=c1c2c(Cl)ccc(Cl)c2nc([C@@H](Nc2ncnc3scnc23)C2CC2)n1-c1cn[nH]c1 [Compound 38, (S)-5,8-dichloro-2-(cyclopropyl(thiazolo[5,4-d]pyrimidin-7-ylamino)methyl)-3-(1H-pyrazol-4-yl)quinazolin-4(3H)-one] | 1100 | 4 | 9 | –
CC[C@H](Nc1ncnc2scnc12)c1nc2c(Cl)ccc(Cl)c2c(=O)n1-c1cn[nH]c1 [Compound 39, (S)-5,8-dichloro-3-(1H-pyrazol-4-yl)-2-(1-(thiazolo[5,4-d]pyrimidin-7-ylamino)propyl)quinazolin-4(3H)-one] | 4700 | 22 | 170 | –
CC[C@H](Nc1ncnn2ccnc12)c1nc2c(Cl)ccc(Cl)c2c(=O)n1-c1cn[nH]c1 [Compound 40, (S)-5,8-dichloro-2-(1-(imidazo[2,1-f][1,2,4]triazin-4-ylamino)propyl)-3-(1H-pyrazol-4-yl)quinazolin-4(3H)-one] | 8700 | 38 | 280 | –
CC[C@H](Nc1ncnc2cccnc12)c1nc2c(Cl)ccc(Cl)c2c(=O)n1-c1cn[nH]c1 [Compound 41, (S)-5,8-dichloro-3-(1H-pyrazol-4-yl)-2-(1-(pyrido[3,2-d]pyrimidin-4-ylamino)propyl)quinazolin-4(3H)-one] | 1600 | 13 | 88 | –
CC[C@H](Nc1ncnc2ccc(Cl)nc12)c1nc2c(Cl)ccc(Cl)c2c(=O)n1-c1cn[nH]c1 [Compound 42, (S)-5,8-dichloro-2-(1-((6-chloropyrido[3,2-d]pyrimidin-4-yl)amino)propyl)-3-(1H-pyrazol-4-yl)quinazolin-4(3H)-one] | 460 | 10 | 77 | –
CC[C@H](Nc1ncnn2ccnc12)c1nc2c(Cl)ccc(Cl)c2c(=O)n1-c1cc[nH]n1 [Compound 43, (S)-5,8-dichloro-2-(1-(imidazo[2,1-f][1,2,4]triazin-4-ylamino)propyl)-3-(1H-pyrazol-3-yl)quinazolin-4(3H)-one] | – | 9 | 39 | > 10000
CC[C@H](Nc1ncnc2cccnc12)c1nc2c(Cl)ccc(Cl)c2c(=O)n1-c1cc[nH]n1 [Compound 44, (S)-5,8-dichloro-3-(1H-pyrazol-3-yl)-2-(1-(pyrido[3,2-d]pyrimidin-4-ylamino)propyl)quinazolin-4(3H)-one] | – | 10 | 84 | > 10000
CC[C@H](Nc1ncnc2ccc(Cl)nc12)c1nc2c(Cl)ccc(Cl)c2c(=O)n1-c1cc[nH]n1 [Compound 45, (S)-5,8-dichloro-2-(1-((6-chloropyrido[3,2-d]pyrimidin-4-yl)amino)propyl)-3-(1H-pyrazol-3-yl)quinazolin-4(3H)-one] | – | 4 | 15 | > 10000
CC[C@H](Nc1ncnc2scnc12)c1nc2c(Cl)ccc(Cl)c2c(=O)n1-c1cc[nH]n1 [Compound 46, (S)-5,8-dichloro-3-(1H-pyrazol-3-yl)-2-(1-(thiazolo[5,4-d]pyrimidin-7-ylamino)propyl)quinazolin-4(3H)-one] | – | 4 | 18 | > 10000
O=c1c2c(Cl)cccc2nc([C@H](COCc2ccccc2)Nc2ncnc3scnc23)n1-c1cn[nH]c1 [Compound 47, (R)-2-(2-(benzyloxy)-1-(thiazolo[5,4-d]pyrimidin-7-ylamino)ethyl)-5-chloro-3-(1H-pyrazol-4-yl)quinazolin-4(3H)-one] | 2400 | 11 | 11 | –
O=c1c2c(Cl)cccc2nc([C@H](COCc2ccccc2)Nc2ncnc3scnc23)n1-c1cc[nH]n1 [Compound 48, (R)-2-(2-(benzyloxy)-1-(thiazolo[5,4-d]pyrimidin-7-ylamino)ethyl)-5-chloro-3-(1H-pyrazol-3-yl)quinazolin-4(3H)-one] | – | 8 | 9 | > 10000
CC[C@H](Nc1nc(N)nc(N)c1C#N)c1nc2cccc(Cl)c2c(=O)n1-c1cc(CCCOC)[nH]n1 [Compound 49, (S)-2,4-diamino-6-((1-(5-chloro-3-(5-(3-methoxypropyl)-1H-pyrazol-3-yl)-4-oxo-3,4-dihydroquinazolin-2-yl)propyl)amino)pyrimidine-5-carbonitrile] | 3500 | 9 | 150 | –
O=c1c2c(Cl)cccc2nc([C@H](CO)Nc2ncnc3scnc23)n1-c1cn[nH]c1 [Compound 50, (R)-5-chloro-2-(2-hydroxy-1-(thiazolo[5,4-d]pyrimidin-7-ylamino)ethyl)-3-(1H-pyrazol-4-yl)quinazolin-4(3H)-one] | 1800 | 7 | 47 | –
O=c1c2c(Cl)cccc2nc([C@H](CO)Nc2ncnc3scnc23)n1-c1cc[nH]n1 [Compound 51, (R)-5-chloro-2-(2-hydroxy-1-(thiazolo[5,4-d]pyrimidin-7-ylamino)ethyl)-3-(1H-pyrazol-3-yl)quinazolin-4(3H)-one] | – | 2 | 9 | > 10000
CC[C@H](Nc1ncnc2[nH]cnc12)c1nc2c(Cl)ccc(Cl)c2c(=O)n1-c1cc[nH]n1 [Compound 52, (S)-2-(1-((9H-purin-6-yl)amino)propyl)-5,8-dichloro-3-(1H-pyrazol-3-yl)quinazolin-4(3H)-one] | – | 6 | 70 | > 10000
CC[C@H](Nc1nc(F)nc2[nH]cnc12)c1nc2c(Cl)ccc(Cl)c2c(=O)n1-c1cc[nH]n1 [Compound 53, (S)-5,8-dichloro-2-(1-((2-fluoro-9H-purin-6-yl)amino)propyl)-3-(1H-pyrazol-3-yl)quinazolin-4(3H)-one] | – | 13 | 76 | > 10000

— patent US10308639B2, “Phosphatidylinositol 3-kinase inhibitors” (Gilead Sciences, Inc., priority 2014, dated 2019)
